The results in this text go back to patent US20250017940A1, “SELECTIVE PEPTIDOMIMETIC MODULATORS OF CAV2.2 (N-TYPE) VOLTAGE-GATED CALCIUM CHANNELS AND USES THEREOF” (New York University, priority 2023, published 2025).

One experiment deals with rat DRG sensory neurons. The experiment can be described thus: Whole-cell current-clamp, excitability of DRG sensory neurons. Format: cell-based. More on the design: rheobase: unit not given here. On the procedure: Cav2.2 channels have critical roles in controlling the excitability of DRG neurons, according to earlier studies (Yang et al., 2018). Since Cav2.2 populations are affected by CBD3063, the ability of CBD3063 to alter the excitability of DRG sensory neurons was investigated (FIGS. 7A-D). Action potentials (AP) were elicited in rat sensory neurons during whole cell current-clamp tests in response to current injections from 0-120 pA after overnight incubation with 0.1% DMSO or 20 μM CBD3063.

For experiment [1], the system named is Cav1 (L-type) calcium channels. Kind of experiment: Whole-cell patch-clamp, isolated L-type Ca2+ currents in DRG neurons. The format is cell-based, rat. On the procedure:
Recordings were obtained from acutely dissociated DRG neurons as described earlier (Bellampalli et al., 2019). Patch-clamp recordings were performed at room temperature (22-24° C.). Currents were recorded using an EPC 10 Amplifier-HEKA (HEKA Elektronik, Ludwigshafen, Germany) linked to a computer with Patchmaster software. DRG neurons were incubated overnight (˜16-24 hours) with 20 μM of CBD3063.
(§1) For total calcium current (ICa^2+) recordings, the external solution consisted of the following (in mM): 110 N-methyl-D-glucamine, 10 BaCl2, 30 TEA-Cl, 10 HEPES, 10 glucose, and 0.001 TTX (pH 7.29 adjusted with TEA-OH, and mOsm/L=310). Patch pipettes were filled with an internal solution containing (in mM): 150 CsCl2, 10 HEPES, 5 Mg-ATP, and 5 BAPTA, (pH 7.2 adjusted with CsOH, and mOsm/L-305). Peak Ca^2+ current was acquired by applying 200-millisecond voltage steps from −70 to +60 mV in 10-mV increments from a holding potential of −90 mV to obtain the current-voltage (I-V) relation. To measure the different subtypes of Ca^2+ channels, DRGs were treated with a Cav inhibitor cocktail omitting the inhibitor specific to the subtype being tested (e.g., to measure Cav2.2 currents, ω-conotoxin GVIA is omitted): Nifedipine (10 μM, L-type), ω-Conotoxin-GVIA (500 nM, […]) (Feng, et al., 2001), SNX482 (200 nM, R-type) (Newcomb et al., 1998), ω-agatoxin (200 nM, P/Q-type) (Mintz et al., 1992), TTA-P2 (1 μM, T-type) (Choe et al., 2011).
(§2) Normalization of currents to each cell's capacitance (pF) was performed to allow for collection of current density data. For I-V curves, functions were fitted to data using a non-linear least squares analysis. I-V curves were fitted using double Boltzmann functions:
(§3) where x is the pre-pulse potential, V1/2 is the mid-point potential, and k is the corresponding slope factor for single Boltzmann functions. Double Boltzmann fits were used to describe the shape of the curve, not to imply the existence of separate channel populations. Numbers 1 and 2 simply indicate first and second mid-points; a along with g are fitting parameters.
(§4) Activation curves were obtained from the I-V curves by dividing the peak current at each depolarizing step by the driving force according to the equation: G=I/(Vmem-Erev), where I is the peak current, Vmem is the membrane potential and Erev is the reversal potential. The conductance (G) was normalized against the maximum conductance (Gmax). For total and the different subtypes of Ca^2+ currents, steady-state inactivation (SSI) curves were obtained by applying an H-infinity protocol that consisted of 1.5-seconds conditioning pre-pulses from −100 to +30 mV in 10-mV increments followed by a 20-millisecond test pulse to +10 mV. For Na^+ currents, SSI curves were obtained by applying an H-infinity protocol that consisted of 1-second conditioning pre-pulses from −120 to +10 mV in 10-mV increments followed by a 200-millisecond test pulse to +10 mV. Inactivation curves were obtained by dividing the peak current recorded at the test pulse by the maximum current (Imax). Activation and SSI curves were fitted with the Boltzmann equation.
(In general: The patch-clamp technique gives a direct electrical read-out from membranes.)

Experiment [2] has as its target T1, Cav2.2 (N-type) calcium channels (Rattus norvegicus, UniProt Q02294).
T1 construct: Recordings were obtained from acutely dissociated DRG neurons; endogenous in cells; host or cells: primary rat DRG neurons
Kind of experiment: Whole-cell patch-clamp, isolated N-type Ca2+ currents in DRG neurons. To be noted: for normalized peak N-type ICa2+ density: normalized to DMSO (1.00±0.07). Format: cell-based. On the procedure: Recordings were obtained from acutely dissociated DRG neurons as described earlier (Bellampalli et al., 2019). Patch-clamp recordings were performed at room temperature (22-24° C.). Currents were recorded using an EPC 10 Amplifier-HEKA (HEKA Elektronik, Ludwigshafen, Germany) linked to a computer with Patchmaster software. […]
as §1, §2, §3, §4

The mark [3] stands for this setting: 20 μM overnight, mean ± SEM (n cells).

SMILES strings stand for the structures.

T1 sequence (Q02294 whole entry): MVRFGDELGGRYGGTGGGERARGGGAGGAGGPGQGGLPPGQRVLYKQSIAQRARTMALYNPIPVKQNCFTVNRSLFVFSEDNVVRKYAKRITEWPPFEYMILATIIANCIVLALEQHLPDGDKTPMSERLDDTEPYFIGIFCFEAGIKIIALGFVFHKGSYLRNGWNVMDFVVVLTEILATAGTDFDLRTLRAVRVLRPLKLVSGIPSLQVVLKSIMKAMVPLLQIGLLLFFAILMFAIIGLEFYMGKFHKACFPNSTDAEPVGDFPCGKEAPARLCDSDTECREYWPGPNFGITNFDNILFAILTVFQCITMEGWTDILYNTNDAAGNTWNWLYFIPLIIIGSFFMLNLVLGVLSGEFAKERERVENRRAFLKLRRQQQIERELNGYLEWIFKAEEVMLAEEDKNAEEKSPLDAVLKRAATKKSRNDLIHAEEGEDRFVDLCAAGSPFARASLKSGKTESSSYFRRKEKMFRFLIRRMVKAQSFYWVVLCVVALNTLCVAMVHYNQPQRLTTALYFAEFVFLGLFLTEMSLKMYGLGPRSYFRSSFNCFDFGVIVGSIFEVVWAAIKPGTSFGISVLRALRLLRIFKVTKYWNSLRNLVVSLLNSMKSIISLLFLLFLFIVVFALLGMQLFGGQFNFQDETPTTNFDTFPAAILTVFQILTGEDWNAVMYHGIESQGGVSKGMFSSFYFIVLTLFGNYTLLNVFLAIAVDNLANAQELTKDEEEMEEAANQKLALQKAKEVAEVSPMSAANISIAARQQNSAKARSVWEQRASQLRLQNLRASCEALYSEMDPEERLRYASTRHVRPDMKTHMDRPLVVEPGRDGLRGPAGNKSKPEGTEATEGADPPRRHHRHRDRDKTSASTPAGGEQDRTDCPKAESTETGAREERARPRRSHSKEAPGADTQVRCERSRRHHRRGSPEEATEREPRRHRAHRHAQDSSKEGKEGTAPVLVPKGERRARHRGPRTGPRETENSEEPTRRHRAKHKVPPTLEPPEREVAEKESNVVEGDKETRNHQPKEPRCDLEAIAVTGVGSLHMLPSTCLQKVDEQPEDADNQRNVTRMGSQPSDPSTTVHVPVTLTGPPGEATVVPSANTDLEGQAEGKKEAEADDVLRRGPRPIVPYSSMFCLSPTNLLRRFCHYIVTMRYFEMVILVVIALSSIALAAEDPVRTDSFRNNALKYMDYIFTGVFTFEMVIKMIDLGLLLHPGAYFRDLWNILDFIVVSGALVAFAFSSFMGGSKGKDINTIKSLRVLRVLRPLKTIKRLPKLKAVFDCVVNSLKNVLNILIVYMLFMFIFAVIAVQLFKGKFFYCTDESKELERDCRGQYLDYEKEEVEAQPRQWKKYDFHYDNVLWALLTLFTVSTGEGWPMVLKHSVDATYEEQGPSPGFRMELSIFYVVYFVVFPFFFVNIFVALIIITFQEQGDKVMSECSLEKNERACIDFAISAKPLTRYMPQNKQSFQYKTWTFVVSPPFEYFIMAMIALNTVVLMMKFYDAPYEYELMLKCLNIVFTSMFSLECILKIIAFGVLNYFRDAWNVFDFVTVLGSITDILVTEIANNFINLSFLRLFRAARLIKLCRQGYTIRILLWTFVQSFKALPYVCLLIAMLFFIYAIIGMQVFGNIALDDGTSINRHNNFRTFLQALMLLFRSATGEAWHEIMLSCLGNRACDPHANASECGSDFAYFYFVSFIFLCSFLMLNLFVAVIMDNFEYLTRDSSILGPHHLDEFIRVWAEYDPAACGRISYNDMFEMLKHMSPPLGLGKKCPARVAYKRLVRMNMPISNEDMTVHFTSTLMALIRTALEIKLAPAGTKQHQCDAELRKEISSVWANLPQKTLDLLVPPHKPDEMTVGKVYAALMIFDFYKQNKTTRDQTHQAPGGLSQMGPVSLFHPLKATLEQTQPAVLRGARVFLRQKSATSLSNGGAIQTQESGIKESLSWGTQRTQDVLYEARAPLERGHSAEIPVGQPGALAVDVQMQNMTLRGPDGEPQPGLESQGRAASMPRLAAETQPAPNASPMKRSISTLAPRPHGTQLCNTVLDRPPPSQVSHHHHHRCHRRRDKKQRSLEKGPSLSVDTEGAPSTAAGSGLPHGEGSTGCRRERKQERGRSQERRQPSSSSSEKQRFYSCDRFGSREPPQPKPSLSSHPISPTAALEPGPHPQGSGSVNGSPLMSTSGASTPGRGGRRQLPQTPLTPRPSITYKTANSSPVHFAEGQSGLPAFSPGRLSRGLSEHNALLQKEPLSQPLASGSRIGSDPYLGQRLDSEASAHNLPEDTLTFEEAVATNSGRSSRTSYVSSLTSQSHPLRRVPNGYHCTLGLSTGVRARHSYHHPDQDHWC
T1 sequence (P54290 25-1091 partner): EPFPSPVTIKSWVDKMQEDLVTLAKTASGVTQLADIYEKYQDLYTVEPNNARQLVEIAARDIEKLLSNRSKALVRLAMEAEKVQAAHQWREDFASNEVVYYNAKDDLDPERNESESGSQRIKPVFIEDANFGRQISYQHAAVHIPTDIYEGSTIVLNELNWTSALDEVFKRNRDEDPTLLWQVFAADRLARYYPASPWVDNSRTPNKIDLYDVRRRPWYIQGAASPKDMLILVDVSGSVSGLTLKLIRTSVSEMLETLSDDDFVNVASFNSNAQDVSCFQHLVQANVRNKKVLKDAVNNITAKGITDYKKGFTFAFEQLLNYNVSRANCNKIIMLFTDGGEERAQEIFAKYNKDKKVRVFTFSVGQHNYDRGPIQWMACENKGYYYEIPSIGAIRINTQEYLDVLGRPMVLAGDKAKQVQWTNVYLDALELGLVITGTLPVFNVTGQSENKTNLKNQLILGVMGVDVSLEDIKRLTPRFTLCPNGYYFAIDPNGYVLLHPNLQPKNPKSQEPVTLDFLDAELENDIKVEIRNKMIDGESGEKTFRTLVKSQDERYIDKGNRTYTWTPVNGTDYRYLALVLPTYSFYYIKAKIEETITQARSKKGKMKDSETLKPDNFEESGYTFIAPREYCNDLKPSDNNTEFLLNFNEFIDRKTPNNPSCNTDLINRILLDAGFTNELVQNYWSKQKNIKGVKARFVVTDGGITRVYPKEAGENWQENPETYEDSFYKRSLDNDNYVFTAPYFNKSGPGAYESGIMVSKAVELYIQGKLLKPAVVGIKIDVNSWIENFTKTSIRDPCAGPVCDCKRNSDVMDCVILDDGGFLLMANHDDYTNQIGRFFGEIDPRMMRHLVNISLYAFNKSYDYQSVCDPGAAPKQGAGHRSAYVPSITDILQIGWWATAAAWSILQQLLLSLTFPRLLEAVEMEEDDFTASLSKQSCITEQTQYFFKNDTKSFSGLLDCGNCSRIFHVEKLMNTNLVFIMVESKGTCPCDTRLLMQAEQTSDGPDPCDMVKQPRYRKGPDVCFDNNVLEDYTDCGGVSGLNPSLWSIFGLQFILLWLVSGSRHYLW
T1 sequence (P54287 whole entry partner): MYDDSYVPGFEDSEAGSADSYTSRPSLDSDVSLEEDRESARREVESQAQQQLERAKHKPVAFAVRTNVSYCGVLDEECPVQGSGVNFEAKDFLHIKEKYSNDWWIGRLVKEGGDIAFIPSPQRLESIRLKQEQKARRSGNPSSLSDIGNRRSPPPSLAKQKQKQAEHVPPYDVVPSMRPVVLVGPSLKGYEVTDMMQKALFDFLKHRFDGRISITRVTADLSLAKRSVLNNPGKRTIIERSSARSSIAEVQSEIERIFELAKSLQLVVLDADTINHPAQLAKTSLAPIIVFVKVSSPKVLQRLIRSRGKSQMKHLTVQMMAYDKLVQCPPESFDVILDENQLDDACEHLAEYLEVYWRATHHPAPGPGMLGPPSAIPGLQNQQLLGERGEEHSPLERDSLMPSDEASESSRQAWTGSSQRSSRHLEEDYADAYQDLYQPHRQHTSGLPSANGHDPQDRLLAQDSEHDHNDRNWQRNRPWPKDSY

In the case of `CC(=O)N[C@@H]1CCCN(C(=O)NCCCNc2ccccn2)C1` [CBD3063, (3R)-3-acetamido-N-[3-(pyridin-2-ylamino)propyl]piperidine-1-carboxamide], the rheobase with rat DRG sensory neurons (20 μM overnight (DMSO: 15.00±3.416)) is listed as 48.33±9.098. The molecule also returned a resting membrane potential in the experiment with rat DRG sensory neurons (20 μM overnight (DMSO: −44.50±1.478)) of −50.00±1.915 mV. Besides, the “number of evoked action potentials” value in the experiment on rat DRG sensory neurons (20 μM overnight, current injection steps 10 to 120 pA) is given as “reduced the number of evoked APs”. Moreover, in experiment [1] (20 μM overnight vs 0.1% DMSO), the “effect on Ca2+ influx through Cav1 (L-type) channels (current density-voltage curve, peak current density)” value is “does not alter”. In experiment [1] (setting [3]), the “L-type Ca2+ currents, activation V1/2” value is −2.704 ± 0.710 (7) mV; the “L-type Ca2+ currents, activation k (slope factor)” value was 5.528 ± 0.615 (7); the “L-type Ca2+ currents, inactivation V1/2” value is given as −10.128 ± 2.133 (7) mV; the “L-type Ca2+ currents, inactivation k (slope factor)” value was −4.961 ± 1.976 (7). For the same molecule, the “normalized peak N-type ICa2+ density” value in experiment [2] (2 μM overnight) is listed as 0.93±1.07. Further, in experiment [2] (20 μM overnight, +10 mV (DMSO: −104.00±11.32)), the “peak N-type calcium current density” value is recorded as −69.18±6.54 pA/pF. Further, in experiment [2] (20 μM overnight, +10 mV, vs control group), the “decrease of N-type currents at peak current density” value was about 33.5%. For the same molecule, in experiment [2] (setting [3]), the “N-type Ca2+ currents, activation V1/2” value is on record as −5.275 ± 0.669 (17) mV; the “N-type Ca2+ currents, activation k (slope factor)” value is listed as 5.616 ± 0.566 (17); the “N-type Ca2+ currents, inactivation V1/2” value is on record as −31.129 ± 2.169 (17) mV; the “N-type Ca2+ currents, inactivation k (slope factor)” value is given as −17.247 ± 2.104 (17). Besides, the “normalized peak N-type ICa2+ density” value in experiment [2] (20 μM overnight) turned out to be 0.74±0.04. Further, in experiment [2] (50 μM overnight), the “normalized peak N-type ICa2+ density” value stood at 0.65±0.06.
